The values that follow come from article PMC10786919, “Design-rules for stapled peptides with in vivo activity and their application to Mdm2/X antagonists” (Nature Communications, 2024).

Data set [1] can be described thus: physchem.
Data set [2] is described as follows: Solubility assay (kinetic solubility, PBS pH 7). Format: physicochemical. As to conditions: pH 7, aqueous buffer, kinetic from dmso stock, pH 7, PBS; read-out: Solubility. In short, it runs like this:
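Std: 10 mM stock → 100 µM in ACN/MeOH/DMSO (10:80:10). Sol. [µM] = (sample peak area / std peak area) × std conc.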

The nature of data set [3]: Lactate dehydrogenase (LDH) release assay. To be noted: LDH: Cytotoxicity assay EC50. It counts as cell-based. The procedure, abridged: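 HCT116 cells stably carrying a p53-responsive β-lactamase reporter were seeded at 8000 cells per well with a final DMSO level of 0.5%. Membrane integrity was assessed by lactate dehydrogenase release using a homogeneous fluorometric kit. Values are geometric means of at least three biological replicates.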

A short description of data set [4]: in vitro. As to conditions: Nanoclick permeability assay EC50. In short, it runs like this: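 Azido-peptide permeability was read as loss of NanoBRET signal (donor 450 nm, acceptor 610 nm) after adding NanoBret618-azide at 10 μM final.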
Data set [5] in a line: Experimental LogD (partition coefficient). As to conditions: not stated, Partition Coeff LogD.

SMILES strings stand for the structures. In brackets after ≈: the same amount, converted by molar mass.

In data set [1], `CC(=O)N[C@@H](CCCCN=[N+]=[N-])C(=O)NCCC(=O)N[C@@H](CC(C)C)C(=O)NC(C)(C)C(=O)N[C@@H](Cc1ccccc1)C(=O)N[C@]1(C)CCCCCCC=CCCC[C@@](C)(C(=O)N[C@@H](CO)C(=O)N[C@@H](C)C(=O)N[C@@H](C)C(N)=O)NC(=O)[C@H](CC2CCC2)NC(=O)[C@H](CCC(N)=O)NC(=O)[C@H](C)NC(=O)[C@H](Cc2c[nH]c3ccccc23)NC(=O)[C@H](Cc2ccc(O)cc2)NC(=O)[C@H](CCC(=O)O)NC1=O` [MP-169] came in with an EPSA of 227 A^2. The solubility kinetic in data set [2] was 61.5 µM (≈ 120 µg/mL). In data set [3], the EC50 is over 50000 nM. Further, the cell entry EC50 in data set [4] came to 253 nM. The logD in data set [5] was 3.06.

Turning to `CC(=O)N[C@@H](CCCCN=[N+]=[N-])C(=O)NCCC(=O)N[C@@H](CC(C)C)C(=O)N[C@H](C(=O)N[C@@H](Cc1ccccc1)C(=O)N[C@]1(C)CCCCCCC=CCCC[C@@](C)(C(=O)N[C@@H](CO)C(=O)N[C@@H](C)C(=O)N[C@@H](C)C(N)=O)NC(=O)[C@H](CC2CCC2)NC(=O)[C@H](CCC(N)=O)NC(=O)C(C)(C)NC(=O)[C@H](Cc2c[nH]c3ccccc23)NC(=O)[C@H](Cc2ccc(O)cc2)NC(=O)[C@H](CCC(=O)O)NC1=O)[C@@H](C)O` [MP-170], in data set [1], the EPSA worked out at 225 A^2. Besides, the solubility kinetic in data set [2] worked out at 92.5 µM (≈ 184 µg/mL). This compound also displayed a half-maximal effective concentration (EC50) in data set [3] of over 50000 nM. In data set [4], the cell entry EC50 came to 549 nM. The logD in data set [5] turned out to be 2.85.

Regarding `CC(=O)N[C@@H](CCCCN=[N+]=[N-])C(=O)NCCC(=O)N[C@@H](CC(C)C)C(=O)N[C@H](C(=O)N[C@@H](Cc1ccccc1)C(=O)N[C@]1(C)CCCCCCC=CCCC[C@@](C)(C(=O)N[C@@H](CO)C(=O)N[C@@H](C)C(=O)N[C@@H](C)C(N)=O)NC(=O)[C@H](CC2CCC2)NC(=O)C(C)(C)NC(=O)[C@H](C)NC(=O)[C@H](Cc2c[nH]c3ccccc23)NC(=O)[C@H](Cc2ccc(O)cc2)NC(=O)[C@H](CCC(=O)O)NC1=O)[C@@H](C)O` [MP-171], the EPSA in data set [1] is 222 A^2. Further, the solubility kinetic in data set [2] came to 34 µM (≈ 65.5 µg/mL). Moreover, the EC50 in data set [3] is over 50000 nM. For the same compound, the cell entry EC50 in data set [4] came to 195 nM. The compound also returned a log distribution coefficient (logD) in data set [5] of 3.

Turning to `CC(=O)N[C@@H](CCCCN=[N+]=[N-])C(=O)NCCC(=O)N[C@@H](CC(C)C)C(=O)N[C@H](C(=O)N[C@@H](Cc1ccccc1)C(=O)N[C@]1(C)CCCCCCC=CCCC[C@@](C)(C(=O)N[C@@H](CO)C(=O)N[C@@H](C)C(=O)N[C@@H](C)C(N)=O)NC(=O)[C@H](CC2CCC2)NC(=O)[C@H](CCC(N)=O)NC(=O)[C@H](CCC(=O)O)NC(=O)[C@H](Cc2c[nH]c3ccccc23)NC(=O)[C@H](Cc2ccc(O)cc2)NC(=O)[C@H](CCC(=O)O)NC1=O)[C@@H](C)O` [MP-180], the EPSA in data set [1] was determined as 235 A^2. Also, the solubility kinetic in data set [2] came out at 93 µM (≈ 189 µg/mL). The concentration giving a half-maximal response (EC50) in data set [3] is over 50000 nM. The cell entry EC50 in data set [4] stood at 732 nM. Moreover, the pH-dependent lipophilicity (logD) in data set [5] is 2.38.

For the compound `CC(=O)N[C@@H](CCCCN=[N+]=[N-])C(=O)NCCC(=O)N(C)[C@@H](CC(C)C)C(=O)N[C@H](C(=O)N[C@@H](Cc1ccccc1)C(=O)N[C@]1(C)CCCCCCC=CCCC[C@@](C)(C(=O)N[C@@H](CO)C(=O)N[C@@H](C)C(=O)N[C@@H](C)C(N)=O)NC(=O)[C@H](CC2CCC2)NC(=O)[C@H](CCC(N)=O)NC(=O)[C@H](C)NC(=O)[C@H](Cc2c[nH]c3ccccc23)NC(=O)[C@H](Cc2ccc(O)cc2)NC(=O)[C@H](CCC(=O)O)NC1=O)[C@@H](C)O` [MP-189], the EPSA in data set [1] was determined as 226 A^2. Also, the solubility kinetic in data set [2] is 122 µM (≈ 242 µg/mL). The compound further yielded an EC50 in data set [3] of over 50000 nM. The cell entry EC50 in data set [4] was 865 nM. In data set [5], this compound came in with a log distribution coefficient (logD) of 3.04.
